Series [1] is described as follows: cytotoxicity towards HFF host cells (Cell Titer 96). To be noted: human, % Inhibition of host cell growth (values in parenthesis). The method, then:
(§1) Cytotoxicity of the test compounds towards host cells was determined using the Cell Titer 96™ it (Promega Corporation, Madison, Wis.) as follows. Cells were seeded at a concentration of 5×10^3 cells per well containing 100 μl of medium in 96-well flat-bottom microtiter plates and incubated at 37° C. in a 5% carbon dioxide environment for 4 hours. Dilutions of the test compounds prepared as described above were then added, and incubation continued for 24, 48 or 72 hours. Four hours before each of these time points the growth medium containing test compound was replaced with 100 μl of fresh medium followed by addition of 16 μl of the kit dye solution. After incubation at 37° C. for another 4 hours, 100 μl of the kit solubilization/stop solution was added to each well, the contents of the wells were mixed and the plates kept 1 hour at room temperature. The plates were then read spectrophotometrically in a plate reader at a wavelength of 570 nm. […] Atovaquone was included in the test as a standard.

Series [2] relates to Toxoplasma gondii. The series is described as follows: growth inhibition of T. gondii in L929 host cells ([3H]-uracil incorporation). The series is classed as cell-based. As to conditions: Toxoplasma gondii, L929 host cells; for inhibition at 0.05 µg/mL: 0.05 μg/ml; for inhibition at 0.5 µg/mL: 0.5 μg/ml; for inhibition at 0.5 µg/mL / inhibition at 5 µg/mL / inhibition at 25 µg/mL: read-out: % Inhibition; for inhibition at 5 µg/mL: 5.0 μg/ml; for inhibition at 25 µg/mL: 25.0 μg/ml. The method, then: (§2) Compounds were tested for it vitro growth inhibitory activity against Toxoplasma gondii replication in L929 (L929-ATCC CCL 1, mouse connective tissue) or HFF (human foreskin fibroblast) host cells using the [^3 H]-uracil incorporation technique as follows. Host cells were grown in 96-well flat-bottom microtiter plates at 37° C in a 5% carbon dioxide environment in modified Eagle's medium containing penicillin, streptomycin and 10% fetal equine serum. Wells containing a homogeneous confluent monolayer of host cells were infected with T. gondii tachyzoites at a ratio of 3 parasites per cell (approximately 6×10^4 tachyzoites per well containing 100 μl of medium). […] Two hours post infection, the cultures were washed to remove free parasites and the various dilutions of test compound were added. Cells were subsequently collected at 24, 48 and 72 hours. Four hours prior to each harvesting 50 Al of [^3 H]-uracil (1 μCi) was added. Cells were collected using a cell harvester and incorporated radioactivity was measured using a scintillation counter. […]

Series [3] is described as follows: cytotoxicity towards L929 host cells (Cell Titer 96). To be noted: mouse, % Inhibition of host cell growth (values in parenthesis). The method, then: as §1
For series [4], the system named is Toxoplasma gondii. The series is described as follows: growth inhibition of T. gondii in HFF host cells ([3H]-uracil incorporation). The series is classed as cell-based. To be noted: Toxoplasma gondii, HFF host cells; for inhibition at 0.5 µg/mL: 0.5 μg/ml; for inhibition at 0.5 µg/mL / inhibition at 5 µg/mL / inhibition at 25 µg/mL: read-out: % Inhibition; for inhibition at 5 µg/mL: 5.0 μg/ml; for inhibition at 0.05 µg/mL: 0.05 μg/ml; for inhibition at 25 µg/mL: 25.0 μg/ml. The method, then:
as §2

A short description of series [5]: toxicity towards MDBKF5D2 host cells (MTS). To be noted: bovine, mdbkf5d2 cells, Cytotoxicity (percent toxicity). The method, then:
(§3) Compounds were tested for in vitro growth inhibitory activity against C. parvum grown in host MDBKF5D2 cells and for toxicity towards the host cells as follows. […] To test for toxicity towards the host cells, the media containing test compound (200 μl) were introduced into two wells of a 96 well microtiter plate containing confluent MDBKF5D2 cell monolayers and two wells without monolayers, and incubated at 37° C. in an 8% carbon dioxide environment. After 48 hours, the tetrazolium salt MTS (Owen's solution) and phenazine methosulfate were added to each well at concentrations of 333 μg/ml and 25 μM, respectively. The plate was returned to the incubator in the dark to develop for 2 hours, then 100 μl of each supernatant was transferred to a new microtiter plate and read spectrophotometrically in a plate reader at a wavelength of 490 nm. Percent toxicity was calculated by subtracting the mean optical density (OD) of the drug supernatants from the OD of medium control supernatants (no drug), dividing by the OD of the medium control, and multiplying by 100. To test for growth inhibitory activity against C. parvum, 3×10^4 oocysts per well were incubated in mentioned concentrations of each drug at 37° C. (8% CO2) on confluent MDBKF5D2 cell monolayers in 96 well microtiter plates. After 48 hours, the level of infection in each well was determined by means of an immunofluorescence assay. Percent inhibition of growth was calculated by subtracting the mean parasite count in the wells containing test compound from the mean parasite count in the medium control wells (no test compound), dividing by the mean parasite count in the medium control wells, and multiplying by 100. Paromomycin was included in the test as a standard.

In another series the test system is Cryptosporidium parvum. As to the kind of experiment: growth inhibitory activity against C. parvum in host MDBKF5D2 cells (immunofluorescence). Type of series: cell-based. To be noted: Cryptosporidium parvum, 48 h. The method, then:
as §3

Each structure is given as a SMILES string.

As to `O=C1C(O)=C([C@H]2CC[C@H](c3ccc(Cl)cc3)CC2)C(=O)c2ccccc21` [Atovaquone, reference compound], the inhibition (as a rule, the drop in the measured response relative to a control, in per cent) at 24 h in series [1] (0.05 μg/ml) was 0%; in series [1] (0.5 μg/ml) it was 0%; in series [1] (5.0 μg/ml), 6.2%; in series [3] (L929, 0.05 μg/ml), 0%; in series [3] (L929, 0.5 μg/ml), 14.3%; in series [3] (L929, 5.0 μg/ml), 20%. Also, the inhibition at 48 h in series [1] (0.05 μg/ml) was found to be 0%; in series [1] (0.5 μg/ml) it was 9.6%; in series [1] (5.0 μg/ml), 31.1%; in series [3] (L929, 0.05 μg/ml), 0%; in series [3] (L929, 0.5 μg/ml) it was 15%; in series [3] (L929, 5.0 μg/ml), 54.1%. Moreover, the inhibition at 72 h is 0% in series [1] (0.05 μg/ml); 1.4% in series [1] (0.5 μg/ml); 28.1% in series [1] (5.0 μg/ml); 0.2% in series [3] (L929, 0.05 μg/ml); 44.4% in series [3] (L929, 0.5 μg/ml); 78.1% in series [3] (L929, 5.0 μg/ml). The inhibition at 0.05 µg/mL was 80.9% in the series with Toxoplasma gondii [2] (L929, 24 h, 24 hours); 0% with Toxoplasma gondii [2] (L929, 48 h, 48 hours); 0% in the series with Toxoplasma gondii [2] (L929, 72 h, 72 hours); 50.5% with Toxoplasma gondii [4] (48 h); 89.4% in the series with Toxoplasma gondii [4] (72 h). Moreover, the inhibition at 0.5 µg/mL with Toxoplasma gondii [2] (L929, 24 h, 24 hours) was determined as 85.2%; in the series on Toxoplasma gondii [2] (L929, 48 h, 48 hours) it was 99%; in the series on Toxoplasma gondii [2] (L929, 72 h, 72 hours), 98.4%; with Toxoplasma gondii [4] (24 h, 24 hours), 98.3%; in the series on Toxoplasma gondii [4] (48 h, 48 hours), 77.8%; with Toxoplasma gondii [4] (72 h, 72 hours) it was 99.8%. Moreover, the inhibition at 5 µg/mL in the series with Toxoplasma gondii [2] (L929, 24 h, 24 hours) was 80.3%; in the series with Toxoplasma gondii [2] (L929, 48 h, 48 hours), 100%; in the series with Toxoplasma gondii [2] (L929, 72 h, 72 hours) it was 97.8%; in the series on Toxoplasma gondii [4] (24 h, 24 hours), 95.5%; in the series with Toxoplasma gondii [4] (48 h, 48 hours), 99.8%; with Toxoplasma gondii [4] (72 h, 72 hours), 100%.
`CCC(C)(NC(=O)c1cc(F)c(F)c(F)c1)C(=O)CCl` (centres unmarked) [Compound 11]: the inhibition at 24 h in series [1] (5.0 μg/ml) turned out to be 2.1%; in series [1] (25.0 μg/ml), 17.5%; in series [3] (L929, 5.0 μg/ml) it was 0%; in series [3] (L929, 25.0 μg/ml) it was 22.6%. Also, the inhibition at 48 h was found to be 6.1% in series [1] (5.0 μg/ml); 20% in series [1] (25.0 μg/ml); 5.5% in series [3] (L929, 5.0 μg/ml); 60.1% in series [3] (L929, 25.0 μg/ml). The inhibition at 72 h came out at 0% in series [1] (5.0 μg/ml); 50.1% in series [1] (25.0 μg/ml); 36.9% in series [3] (L929, 5.0 μg/ml); 89.6% in series [3] (L929, 25.0 μg/ml). For the same compound, the inhibition at 5 µg/mL in the series on Toxoplasma gondii [2] (L929, 24 h, 24 hours) was determined as 21.5%; with Toxoplasma gondii [2] (L929, 48 h, 48 hours) it was 80.1%; in the series with Toxoplasma gondii [2] (L929, 72 h, 72 hours), 95.4%; with Toxoplasma gondii [4] (24 h, 24 hours), 73.4%; in the series on Toxoplasma gondii [4] (48 h, 48 hours), 98.4%; in the series with Toxoplasma gondii [4] (72 h, 72 hours), 97.7%. Also, the inhibition at 25 µg/mL came to 25.6% in the series on Toxoplasma gondii [2] (L929, 24 h, 24 hours); 66.1% in the series with Toxoplasma gondii [2] (L929, 48 h, 48 hours); 73.6% in the series with Toxoplasma gondii [2] (L929, 72 h, 72 hours); 91.9% with Toxoplasma gondii [4] (24 h, 24 hours); 98.8% in the series with Toxoplasma gondii [4] (48 h, 48 hours); 97.7% with Toxoplasma gondii [4] (72 h, 72 hours). The compound also had a cytotoxicity at 48 h, 0.1 µM in series [5] (0.1 μM) of 0%. This compound yielded a cytotoxicity at 48 h, 1 µM in series [5] (1.0 μM) of 0%. In series [5] (10 μM), this compound showed a cytotoxicity at 48 h, 10 µM of 0%. Besides, the cytotoxicity at 48 h, 100 µM in series [5] (100 μM) was 2.7%. For the same compound, in the series with Cryptosporidium parvum (0.1 μM), 0.1 µM produced 5.6% inhibition. Moreover, in the series with Cryptosporidium parvum (1.0 μM), the inhibition at 1 µM came to 18.1%. The compound also came in with an inhibition at 10 µM with Cryptosporidium parvum (10 μM) of 23.9%. The compound further had an inhibition at 100 µM with Cryptosporidium parvum (100 μM) of 86.2%.
For `NC[C@@H]1O[C@H](O[C@H]2[C@@H](O)[C@H](O[C@@H]3[C@@H](O)[C@H](N)C[C@H](N)[C@H]3O[C@H]3O[C@H](CO)[C@@H](O)[C@H](O)[C@H]3N)O[C@@H]2CO)[C@H](N)[C@@H](O)[C@@H]1O` [Paromomycin, reference compound], the inhibition at 2000 µg/mL with Cryptosporidium parvum was determined as 77.8%.

Source of the values: patent US6107316A, “Method for treating protozoal infections” (priority 1998, dated 2000).
